How the values were obtained:
[1] = test system: A549 cells; assay: G2/M checkpoint: cells containing phosphorylated histone H3 (flow cytometry) in UV-irradiated A549 cells; assay type: cell-based; conditions: 30 μM compound, 20 J/m^2 UV, ratio of G2/M (phospho-histone H3) cells to total, Control 1.88, UV irradiation alone 0.52
Protocol: A549 cells were seeded as 3×10^4 cells/cm^2 in the growth medium on 10 cm dish and incubated for overnight. Then, Schizandrin B was added to the medium as final concentration of 30 μM. At 1 hour after the addition of Schizandrin B, the medium was removed, and were irradiated with 20 J/m^2 and 50 J/m^2 of UV. After the UV irradiation, and then the cells were incubated in the Schizandrin B-containing medium having the same concentration as mentioned above for 1 hour. Then, the percentage of the cells containing phosphorylated histone H3 were measured in accordance with a Measurement of the phosphorylated histone H3 as mentioned below. The FIG. 2(A) is a result of flowcytometry as obtained in the treatment with Schizandrin B. In the FIG. 2(A), the encircled portion indicates the cell group in G2/M phase, numbers as mentioned above the portion indicates the ratio of the cells in G2/M phase to the total number of cells. In addition, the FIG. 2(B) indicates a graph showing the ratio.
Ratios of the cells in G2/M phase to the total number of cells were obtained in accordance with the Embodiment 2-1, except that, in the Embodiment 2-1, 20 J/m^2 of UV were irradiated instead of 20 J/m^2 and 50 J/m^2 of UV and the compounds of the formulas (1) to (10) and Angeloyl Gomisin A of a formula (C) (final concentration of 30 μM) as mentioned below were used instead of the final concentration of 30 μM of Schizandrin B. The result is shown in Table 1.
The cells were harvested and fixed with 70% ice-cooled ethanol after the washing with PBS. PBS containing 0.25% Triton X-100 was added, and the cells were stood on ice for 30 minutes. Cells were centrifuged (500×g, 5 minutes) and replaced to PBS containing 1% bovine serum albumin (BSA) and 1 μg of […] (specifically binding to the phosphorylated histone H3 at 13 Serine), and incubated for 4 hours at room temperature.
After the subsequent washes with PBS containing 1% BSA, goat anti-rabbit IgG antibody conjugated with FITC which diluted with 100 times with PBS containing 1% BSA was added, and incubated for 30 minutes at dark place. These cells were counterstained with PI in accordance with the FACS analysis as mentioned below. The percentage of cells containing phosphorylated histone H3 was measured and evaluated with flowcytometry (Beckman-Coulter).

[2] = test system: P-p53 (Ser15) in A549 cells; assay: Phosphorylation of p53 at serine 15 in UV-irradiated A549 cells (immunoblot); assay type: cell-based; conditions: Homo sapiens, light or radiation study, 3 h, 30 μM compound, 25 J/m^2 UV, UV irradiation alone = 100%, Control 15.4, read-out: Relative rate of P-p53 (Ser15) band intensity
Protocol: A549 cells were seeded as 3×10^4 cells/cm^2 in the growth medium on 10 cm dish, incubated for overnight, and Schizandrin B was added in the medium as final concentration of 30 μM in the medium. After 1 hour incubation, the medium was removed, irradiated with 20 J/m^2 of UV, and incubated for 3 hours (hereinafter, referred to as “UV-cell group” with regard to the obtained cells).
It should be noted that both groups of the UV-cell group and IR-cell group were cultured in the presence of 50 μM of N-acetyl-L-Leucyl-L-Leucyl-L-norleucinal (Sigma, Mo., USA) (hereinafter, referred to as “LLnL”) from 15 minutes prior to the irradiation to collection of the cells as mentioned below. Protein in the cells were extracted in accordance with a Preparation of proteins as mentioned below, immunoblot analysis was performed with regard to the phosphorylated p53 at 15 serine (P-p53 (Ser 15)), p53 protein (p53), phosphorylated ATM protein at 1981 serine (P-ATM (Ser1981)) and glyceraldehyde-3-phosphate dehydrogenase (GAPDH) in accordance with an Immunoblot analysis as mentioned below.
The dose-depended effect of Schizandrin B on the phosphorylation of p53 in A549 cells irradiated with UV A549 cells were seeded as 3×10^4 cells/cm^2 in the growth medium on 10 cm dish, incubated for overnight, and Schizandrin B was added in the medium as final concentration of 10, 30 and 100 μM in the medium. After 1 hour incubation, the medium was removed, and the cells were irradiated with 20 J/m^2 of UV. The cells were treated with LLnL as mentioned in Embodiment 4. Then, expression of p53 and phosphorylated p53 at 15 serine (P-p53 (Ser15)) in the cells treated with the same concentration of Schizandrin B as mentioned above was examined.
Expression of phosphorylated p53 at 15 serine (P-p53 (Ser15)) was examined in accordance with Embodiment 5-1, except that, in Embodiment 5-1, compounds of the Formulas (1) to (10) and the compound of the Formula (C) (final concentration of 30 μM) were added in the medium instead of the addition of final concentration of 10, 30 and 100 μM of Schizandrin B in the medium, and 25 J/m^2 of UV was irradiated instead of the 20 J/m^2 of UV irradiation. Electrophoresis image as obtained is shown in FIG. 5-2, and relative ratio of the band intensity corresponding to P-p53 (Ser15) to that of the band as obtained in the irradiation with UV as 100% is shown in Table 2.
50 μg of cellular proteins (as prepared in accordance with the Preparation of proteins as mentioned below) were applied to SDS polyacrylamide gel electrophoresis (12.5%), the electrophored proteins were transferred into the nitrocellulose membrane in accordance with the standard method, and blocking reaction was performed for 1 hour at room temperature using Tris-buffered saline (TBS-T) containing 5% skim milk and 0.1% Triton X-100. So obtained membrane were incubated with the desired adequate antibodies as mentioned below for 16 hours at 4° C., and then incubated with secondary anti-serum (corresponding to the animal originated from the desired antibodies) conjugated with horseradish peroxidase for 1 hour at room temperature. Then, the target proteins were visualized with ECL reaction kit (Amersham) and chemiluminescence film (Amersham) to obtain a protein image.
The cells were harvested with ice-cooled PBS from the culture dish, and were washed twice with cooled PBS. Then, it was centrifuged to obtain cell pellet. The pellet was solubilized with UTB buffer as mentioned below to prepare cellular protein. The content of the proteins was measured with Protein Assay kit (Bio-Rad).

[3] = target: T1, ATR (Homo sapiens, UniProt Q13535); assay: ATR protein kinase activity (Flag-ATR immunoprecipitate, PHAS-I substrate, 32P-ATP); assay type: biochemical; conditions: 300 μM ATP, 20 minutes at 30° C., estimated from lines, read-out: IC50 for the phosphorylating activity of ATR
T1 construct: made in house; host or cells: 293T cells (ATCC: CRL-11268), transient transfection of pcDNA3.1 plasmid, anti-Flag M2 immunoprecipitate
T1 sequence (Q13535 whole entry A92R): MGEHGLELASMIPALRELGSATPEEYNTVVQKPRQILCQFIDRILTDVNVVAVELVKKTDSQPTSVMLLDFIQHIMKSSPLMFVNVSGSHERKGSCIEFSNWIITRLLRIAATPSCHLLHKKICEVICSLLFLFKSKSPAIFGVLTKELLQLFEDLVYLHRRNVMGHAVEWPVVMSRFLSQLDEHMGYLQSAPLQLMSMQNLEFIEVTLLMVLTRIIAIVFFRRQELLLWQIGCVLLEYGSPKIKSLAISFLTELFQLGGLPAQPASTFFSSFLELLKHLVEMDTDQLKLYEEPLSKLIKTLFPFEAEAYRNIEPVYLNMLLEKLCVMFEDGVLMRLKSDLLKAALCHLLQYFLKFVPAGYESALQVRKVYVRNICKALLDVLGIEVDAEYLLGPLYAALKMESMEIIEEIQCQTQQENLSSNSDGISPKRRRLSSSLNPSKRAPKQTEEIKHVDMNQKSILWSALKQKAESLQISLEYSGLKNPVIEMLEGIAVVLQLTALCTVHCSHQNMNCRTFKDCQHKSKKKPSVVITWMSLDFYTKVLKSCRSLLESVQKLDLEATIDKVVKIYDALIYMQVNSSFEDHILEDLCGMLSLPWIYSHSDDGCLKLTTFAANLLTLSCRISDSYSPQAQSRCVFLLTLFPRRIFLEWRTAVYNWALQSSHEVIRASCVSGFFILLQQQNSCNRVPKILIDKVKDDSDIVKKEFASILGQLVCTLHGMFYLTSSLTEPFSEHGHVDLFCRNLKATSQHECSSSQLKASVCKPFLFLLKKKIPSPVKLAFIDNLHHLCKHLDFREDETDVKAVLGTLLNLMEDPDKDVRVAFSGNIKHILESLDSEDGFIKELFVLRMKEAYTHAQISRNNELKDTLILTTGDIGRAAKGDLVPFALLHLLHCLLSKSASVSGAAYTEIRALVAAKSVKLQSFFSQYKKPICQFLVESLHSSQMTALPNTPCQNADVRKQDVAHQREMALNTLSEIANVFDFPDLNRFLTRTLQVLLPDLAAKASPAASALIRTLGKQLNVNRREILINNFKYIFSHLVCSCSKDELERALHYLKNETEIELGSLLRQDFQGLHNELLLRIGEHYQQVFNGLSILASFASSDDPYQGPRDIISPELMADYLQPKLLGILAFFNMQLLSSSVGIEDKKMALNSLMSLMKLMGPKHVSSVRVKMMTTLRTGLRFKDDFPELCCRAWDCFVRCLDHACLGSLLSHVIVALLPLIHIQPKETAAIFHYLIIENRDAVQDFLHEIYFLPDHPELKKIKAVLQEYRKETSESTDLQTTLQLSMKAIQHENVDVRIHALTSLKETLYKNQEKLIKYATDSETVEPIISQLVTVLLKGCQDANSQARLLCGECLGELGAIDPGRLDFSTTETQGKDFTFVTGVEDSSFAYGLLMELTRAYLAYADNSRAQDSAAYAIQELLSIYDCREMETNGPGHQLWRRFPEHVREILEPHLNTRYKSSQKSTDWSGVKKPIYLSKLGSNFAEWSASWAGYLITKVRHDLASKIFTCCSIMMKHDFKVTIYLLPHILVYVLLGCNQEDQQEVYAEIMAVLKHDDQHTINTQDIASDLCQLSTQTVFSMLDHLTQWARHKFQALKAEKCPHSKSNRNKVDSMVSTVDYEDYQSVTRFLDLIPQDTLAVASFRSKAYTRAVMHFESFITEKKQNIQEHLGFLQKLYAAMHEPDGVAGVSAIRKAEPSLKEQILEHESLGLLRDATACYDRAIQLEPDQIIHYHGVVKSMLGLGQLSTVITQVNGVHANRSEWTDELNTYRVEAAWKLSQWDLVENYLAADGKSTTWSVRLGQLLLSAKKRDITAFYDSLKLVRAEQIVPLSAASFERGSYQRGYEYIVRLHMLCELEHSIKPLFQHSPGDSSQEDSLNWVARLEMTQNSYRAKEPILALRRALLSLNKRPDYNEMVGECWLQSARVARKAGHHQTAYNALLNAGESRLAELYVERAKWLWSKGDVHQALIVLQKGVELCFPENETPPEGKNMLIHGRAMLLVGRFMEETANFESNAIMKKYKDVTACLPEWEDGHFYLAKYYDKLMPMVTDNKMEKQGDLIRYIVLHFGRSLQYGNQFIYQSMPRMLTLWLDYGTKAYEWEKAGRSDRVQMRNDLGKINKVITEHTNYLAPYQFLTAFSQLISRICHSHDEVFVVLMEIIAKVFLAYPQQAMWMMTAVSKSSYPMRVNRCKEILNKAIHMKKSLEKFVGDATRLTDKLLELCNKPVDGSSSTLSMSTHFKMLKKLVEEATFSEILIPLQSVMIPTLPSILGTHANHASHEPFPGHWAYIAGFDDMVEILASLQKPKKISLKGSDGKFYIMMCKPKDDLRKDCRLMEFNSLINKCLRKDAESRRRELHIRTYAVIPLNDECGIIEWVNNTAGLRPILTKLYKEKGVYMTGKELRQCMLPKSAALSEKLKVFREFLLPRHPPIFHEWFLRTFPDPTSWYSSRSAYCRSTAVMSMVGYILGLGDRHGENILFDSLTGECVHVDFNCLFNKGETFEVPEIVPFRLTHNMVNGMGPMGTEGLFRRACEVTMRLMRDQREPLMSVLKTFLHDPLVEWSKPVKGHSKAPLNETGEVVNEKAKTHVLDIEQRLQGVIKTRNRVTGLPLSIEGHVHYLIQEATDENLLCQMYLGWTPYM
Protocol: 1 μg of recombinant PHAS-I protein (Alexis Biochemicals) as a substrate, and Schizandrin B were added to mixtures of ATR and ATM for the kinase reaction as prepared in accordance with a Preparation of mixtures of ATR and ATM for kinase reaction as follows. 300 μM of ATP containing a suitable concentration of ^32P-ATP was added to react it for 20 minutes at 30° C. 4 volumes of SDS sample loading buffer (200 mM Tris-HCl (pH 6.8), 400 mM DTT and 8% SDS) were added to the reaction mixture to stop the reaction, and the obtained mixture is applied to 12% SDS-PAGE. After the gel as obtained was dried, […] corresponding to the band of ^32P—PHAS-I in the mixture was evaluated using autoradiography method. In the Figure, (A) and (B) indicate the relative activities of ATR and ATM, respectively, the horizontal axis indicates the concentration of Schizandrin B, and the vertical axis indicates the relative value of the count as obtained in Schizandrin B-treated group to that of no-addition of Schizandrin B group.
IC50s of the compounds for the phosphorylating activity of ATR were estimated based on the lines as obtained in accordance with Embodiment 7-1, except that, in Embodiment 7-1, the compounds of the Formulas (1) to (5) and the compound of the Formula (C) were used instead of Schizandrin B. The values are shown in Table 3.
ATR conjugated with Flag as constructed with conventional method as disclosed in, e.g. Non-Patent-Related Document 9 was used for a mixture of ATR for kinase reaction. In detail, Bam H1H-Swa I fragment of ATR gene (Sequence Number 4) (1 kb) was substituted with a gene having the ATR gene and Flag ([…]) at N terminal and the gene was amplified with PCR. So obtained gene product was introduced into pcDNA3.1, and target product was obtained from the plasmid. In addition, ATM conjugated with Flag as manufactured in accordance with the well-known method as disclosed in e.g. non-patent related documents 10 and 11 and using Quikchange site-Directed Mutagenesis Kit (Stratagene) was used for a mixture of ATM for kinase reaction.
These ATR and ATM plasmids tagged with Flag (Sequence Numbers 4 and 5) were transfected in 293T cells (ATCC: CRL-11268) by Calcium phosphate method as followed. After 2 days, 5 mg of cellular proteins were prepared using IP buffer in accordance with the Preparation of proteins as mentioned below instead of the UTB buffer, and ATR and ATM were immuno-precipitated with 20 μg of anti-Flag M2 monoclonal antibody (Sigma) for 4 hours at […], independently. The precipitates were incubated with beads conjugated with protein G cepharose (Amersham). […]

[4] = target: T2, ATM (Homo sapiens, UniProt Q13315); conditions: caffeine, literature; cited from earlier work
T2 construct: made in house; host or cells: 293T cells (ATCC: CRL-11268), transient transfection, anti-Flag M2 immunoprecipitate

IC50 [3] [µM]	Structure (SMILES)	Rate of Divided cells [1] [%]	activity at 30 µM [2] [%]	IC50 for ATM relative to that of ATR [4]
111	C/C=C(\C)C(=O)O[C@@]1(C)Cc2cc(OC)c(OC)c(OC)c2-c2c(cc3c(c2OC)OCO3)C[C@@H]1C (atropisomer, axis not shown) [AGA, Angeloyl Gomisin A, reference compound]	1.04 ± 0.06	92.2	
	COc1cc2c(c(OC)c1OC)-c1c(cc3c(c1OC)OCO3)C[C@H](C)[C@@](C)(O)C2 (atropisomer, axis not shown) [GA, Gomisin A]	0.90 ± 0.07	58.3	
	C/C=C(/C)C(=O)O[C@H]1c2cc(OC)c(OC)c(OC)c2-c2c(cc3c(c2OC)OCO3)C[C@H](C)[C@@]1(C)O (atropisomer, axis not shown) [GB, Gomisin B]	0.85 ± 0.12	60.9	
10.6	COc1cc2c(c(OC)c1OC)-c1c(cc3c(c1OC)OCO3)C[C@H](C)[C@@](C)(O)[C@H]2OC(=O)c1ccccc1 (atropisomer, axis not shown) [GC, Gomisin C]			
	COc1cc2c(c(OC)c1OC)-c1c(cc3c(c1OC)OCO3)C[C@H](C)[C@](C)(O)[C@H]2OC(=O)c1ccccc1 (atropisomer, axis not shown) [GC, Gomisin C]	1.16 ± 0.16	49.8	
32	COc1cc2c(c(OC)c1OC)-c1c(cc3c(c1OC)OCO3)[C@H](OC(=O)c1ccccc1)[C@](C)(O)[C@@H](C)C2 (atropisomer, axis not shown) [GG, Gomisin G]	1.13 ± 0.05	51.3	
45.7	COc1cc2c(c(O)c1OC)-c1c(cc(OC)c(OC)c1OC)C[C@](C)(O)[C@@H](C)C2 (atropisomer, axis not shown) [GH, Gomisin H]	1.42 ± 0.03	50.3	
	COc1cc2c(c(OC)c1OC)-c1c(cc3c(c1OC)OCO3)C[C@@H](C)[C@@H](C)C2 (atropisomer, axis not shown) [GN, Gomisin N]	0.88 ± 0.12	38.4	
	COc1cc2c(c(OC)c1OC)-c1c(cc(OC)c(OC)c1OC)C[C@](C)(O)[C@@H](C)C2 (atropisomer, axis not shown) [S, Schizandrin]	0.68 ± 0.04	42.7	
	COc1c2c(cc3c1-c1c(cc4c(c1OC)OCO4)C[C@H](C)[C@H](C)C3)OCO2 (atropisomer, axis not shown) [SchC, Schizandrin C]	0.68 ± 0.11	42.6	
	Cn1c(=O)c2c(ncn2C)n(C)c1=O [Caffeine, 3,7-dihydro-1,3,7-trimethyl-1H-purine-2,6-dione]			⅕
